Measurements from paper PMC11678782, “The Antioxidant and Anti-Inflammatory Activities of the Methanolic Extract, Fractions, and Isolated Compounds from Eriosema montanum Baker f. (Fabaceae)” (Molecules, 2024).
Values after ≈ are worked out from the molar mass of the structure shown. “Also recorded” adds a separate entry of the source.

Legend:
[1] = ABTS radical scavenging assay; details: 5 min, 734 nm
Procedure: (§1) Three in vitro antioxidant assays, namely, 2,2′-azinobis-(3-ethylbenzothiazoline-6-sulfonic acid (ABTS), 2,2′-diphenyl-1-picrylhydrazyl (DPPH), and ferric ion reducing antioxidant power (FRAP), were used to determine the antioxidant activity according to methods previously reported. Ascorbic acid (0 to 200 μg/mL) was used as positive control in these experiments, and Formula (1) below allowed us to evaluate the percentage of radical scavenging capacity. The inhibitory concentration (IC50) values were evaluated by plotting a nonlinear graph of percentage radical scavenging capacity versus logarithm of tested concentrations. Scavenging capacity (%) = [(A0 − A1)/A0] × 100(1) where A0 is absorbance of negative control, and A1 is absorbance of extract with ABTS^•+ radical cation.
Specifically, 2.45 mM of potassium persulfate and 7 mM of ABTS solution were dissolved in methanol and combined to create the ABTS^•+ radical cation, which was stored at 25 °C for a minimum of 16 h. At 734 nm, the absorbance of the generated ABTS^•+ was measured using a SpectraMax iD3 multi-mode microplate reader (Molecular Devices, San Jose, CA, USA) and calibrated to 0.70 ± 0.02. After carefully diluting 40 μL of EMME (1 mg/mL) with methanol and adding 160 μL of (ABTS^•+) radical cation, the 96-well microtiter plate was left to sit at 25 °C in the dark for five minutes. Using a SpectraMax iD3 multi-mode microplate reader, the absorbance values were measured at 734 nm against the blank (extract plus methanol without ABTS^•+). A nonlinear curve representing the percentage of ABTS^•+ scavenging capacity vs. a logarithm of tested concentrations was then plotted to determine the inhibitory concentration (IC50) values.
(§2) The IC50 values were calculated for each biological experiment using the nonlinear regression curve of the % inhibitory activity versus the logarithm (log10) of the various tested concentrations using GraphPad Prism 6.0 software (GraphPad Software, Inc., San Diego, CA, USA). The data are shown as mean ⁱ SEM (standard error of the mean) values, and all biological experiments were conducted in triplicate (n = 3). The statistical analysis was conducted using GraphPad Prism 6.0 software (GraphPad Software, Inc., San Diego, CA, USA). One-way analysis of variance (ANOVA) was used to compare the data across the tested samples and/or controls, and Student–Newman–Keuls or Dunnett’s tests were then performed. A p-value of less than 0.05 indicated a significant difference in the results.

[2] = DPPH radical scavenging assay; details: 30 min, 517 nm
Procedure: as §1
To be able to determine the DPPH^• scavenging capacity of EMME, we performed a serial dilution of 40 μL of the sample (1 mg/mL) with methanol on a 96-well microtiter plate, with 160 μL of solution of DPPH^• thereafter (25 μg/mL). The incubation at 25 °C in the dark was performed after 30 min, with the absorbance values measured at 517 nm on a SpectraMax iD3 multi-mode microplate against a blank (extract plus methanol without DPPH^•). […]. Methanol with DPPH^• served as the negative control. Using Formula (1), the DPPH scavenging capability was calculated at the measured concentrations above, and as previously enumerated, the IC50 values were also calculated, as indicated in the previously described procedure.
as §2

[3] = test system: LPS-stimulated RAW 264.7 cells; experiment: NO production inhibition in LPS-stimulated RAW 264.7 cells (Griess); assay type: cell-based, murine; details: for IC50: Mus musculus, RAW264.7, RAW 264.7, 2 h pre-treatment, 500 ng/mL LPS 24 h; for Inhibition of LPS-induced NO production: RAW 264.7, single-concentration test at 100 µg/mL, vs control cells
Procedure: […] in a humidified environment containing 5% CO2 and 95% air. For NO and ROS production inhibition assays, the cytotoxic effect of tested samples at 100 µg/mL after 24 h of exposure was initially measured on RAW 264.7 cells (10,000 cells per well) using the standard MTT assay. Then, for NO production inhibition assay, RAW 264.7 cells were pre-treated with tested samples at 100 µg/mL for 2 h followed by addition of culture medium containing 500 ng/mL of lipopolysaccharide (LPS) (Merck, Darmstadt, Germany). After 24 h of incubation under standard cell-culture conditions, NO released was measured in cell supernatants using the Griess reagent (Sigma Aldrich, Darmstadt, Germany), and a SpectraMax iD3 multi-mode microplate reader (Molecular Devices, San Jose, CA, USA) was used to capture the absorbance readings at 540 nm. The ability of each tested material to reduce nitric oxide synthesis by LPS-stimulated RAW 264.7 macrophages in comparison to the negative control (cells treated with DMSO at 0.5% and LPS without extract) was used to calculate the percentage of NO production inhibition.
as §2

Row | IC50 ABTS [1] [µg/mL] | IC50 DPPH [2] [µg/mL] | IC50 [3] [µg/mL] | IC50 ABTS ([1]; listed as genistin) [µg/mL] | IC50 DPPH ([2]; listed as genistin) [µg/mL] | SMILES | Inhibition of LPS-induced NO production [3] | Inhibition of LPS-induced NO production ([3]; listed as Genistin (5)) | Inhibition of LPS-induced NO production ([3]; listed as genistin (5))
1 | >100 | >100 | > 100 |  |  | CO[C@H]1[C@H](O)[C@@H](O)[C@@H](O)[C@H](O)[C@@H]1O [Compound 6, D-pinitol] |  |  | 
2 | 91.02 ± 1.33 (≈ 211 µM) | 99.89 ± 1.26 (≈ 231 µM) | 66 ± 4.21 (≈ 153 µM) | 99.89 (≈ 231 µM) | 91.02 (≈ 211 µM) | O=c1c(-c2ccc(O)cc2)coc2cc(O[C@@H]3O[C@H](CO)[C@@H](O)[C@H](O)[C@H]3O)cc(O)c12 [Compound 5, genistin] | significantly inhibited | able to inhibit | moderate activity; also recorded: moderately effective
3 | >100 | >100 | > 100 |  |  | CCCCCCCCCCCCCCCCCCCCCCCO [Compound 3, tricosan-1-ol] |  |  | 
4 | >100 | >100 | > 100 |  |  | O=c1c2c(O)cc(O)cc2oc2oc3cc(O)ccc3c12 [Compound 4, lupinalbin A] |  |  | 
5 | >100 | >100 | > 100 |  |  | CCCCCCCCCCCCCCCC [Compound 1, n-hexadecane] |  |  | 

Row | SMILES | IC50 ABTS [1] [µg/mL] | IC50 DPPH [2] [µg/mL] | IC50 [3] [µg/mL] | IC50 ABTS ([1]; listed as genistin) [µg/mL] | IC50 DPPH ([2]; listed as genistin) [µg/mL] | Inhibition of LPS-induced NO production [3] | Inhibition of LPS-induced NO production ([3]; listed as Genistin (5)) | Inhibition of LPS-induced NO production ([3]; listed as genistin (5))
6 | CC[C@H](/C=C/[C@@H](C)[C@H]1CC[C@H]2[C@@H]3CC=C4C[C@@H](O[C@@H]5O[C@H](CO)[C@@H](O)[C@H](O)[C@H]5O)CC[C@]4(C)[C@H]3CC[C@]12C)C(C)C [Compound 7, stigmasterol glucoside] | >100 | >100 | > 100 |  |  |  |  | 
